One test deals with T1, RIPK2 enzyme (Homo sapiens, UniProt O43353).
T1 construct: purchased Carna 09-128
The test is described as follows: RIPK2 inhibition (ADP-Glo Kinase Assay). Format: biochemical. Particulars: RIPK2 5 nM, ATP 150 μM, MBP substrate, read-out: RIPK2 IC50. The method, boiled down: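 Swine MBP substrate; compound and 5 nM RIPK2 first mixed for 30 min at room temperature; buffer pH 7.5 HEPES 50 mM with 10 mM MgCl2, 2 mM DTT, 1 mM EGTA, Brij-35, BSA.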
On the technique in general: ADP-Glo turns the ADP formed in a reaction into a luminescent signal.

In test [1] the test system is TNF-alpha secretion in human whole blood. The test is described as follows: Inhibition of TNF-alpha secretion in human whole blood (IFN-gamma primed, L18-MDP stimulated). Format: cell-based. The conditions noted are these: Homo sapiens, 16 h, L18-MDP 100 ng/mL, read-out: Human Whole Blood TNFα IC50.
For test [2], the target named is T2, RIPK2 and XIAP protein-protein interaction (Homo sapiens, UniProt O43353).
T2 construct: the N-terminus of full-length RIPK2 was appended with the HaloTag fusion protein; expressed in transfected cells; host or cells: HEK293T
The test is described as follows: Inhibition of the interaction of RIPK2 with XIAP (NanoBRET in HEK293T cells). The conditions noted are these: RIPK2 HaloTag / XIAP NanoLuc, read-out: NanoBRET Scaffolding IC50. Format: cell-based. The method, boiled down: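 HEK293T cells transiently co-transfected with HaloTag-RIPK2 (N-terminal) and XIAP-NanoLuc (C-terminal) full-length fusions, grown 24 h at 37° C. in Opti-MEM with 4% FBS. Compounds tested as 10-point 3-fold dilutions; NanoBRET ratio taken as 618 nm acceptor over 460 nm donor emission.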
(BRET reads energy transfer from a luciferase to a nearby fluorophore.)

A value given as a limit tells only on which side of the number the result lay.

These results are taken from US12624018B1, “Inhibitors of RIPK2 and medical uses thereof” (Odyssey Therapeutics, Inc., priority 2022, dated 2026).

T1 sequence (O43353 1-299 limits assumed): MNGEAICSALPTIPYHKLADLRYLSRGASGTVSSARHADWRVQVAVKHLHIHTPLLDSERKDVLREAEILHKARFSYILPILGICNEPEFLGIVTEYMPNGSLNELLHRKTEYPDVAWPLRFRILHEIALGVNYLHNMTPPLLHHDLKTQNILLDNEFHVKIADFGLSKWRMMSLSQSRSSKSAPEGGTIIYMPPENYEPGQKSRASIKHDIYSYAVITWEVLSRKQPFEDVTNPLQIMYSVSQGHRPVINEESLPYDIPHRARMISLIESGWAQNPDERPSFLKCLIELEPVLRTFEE
T2 sequence (O43353 whole entry, the tested form may be a part): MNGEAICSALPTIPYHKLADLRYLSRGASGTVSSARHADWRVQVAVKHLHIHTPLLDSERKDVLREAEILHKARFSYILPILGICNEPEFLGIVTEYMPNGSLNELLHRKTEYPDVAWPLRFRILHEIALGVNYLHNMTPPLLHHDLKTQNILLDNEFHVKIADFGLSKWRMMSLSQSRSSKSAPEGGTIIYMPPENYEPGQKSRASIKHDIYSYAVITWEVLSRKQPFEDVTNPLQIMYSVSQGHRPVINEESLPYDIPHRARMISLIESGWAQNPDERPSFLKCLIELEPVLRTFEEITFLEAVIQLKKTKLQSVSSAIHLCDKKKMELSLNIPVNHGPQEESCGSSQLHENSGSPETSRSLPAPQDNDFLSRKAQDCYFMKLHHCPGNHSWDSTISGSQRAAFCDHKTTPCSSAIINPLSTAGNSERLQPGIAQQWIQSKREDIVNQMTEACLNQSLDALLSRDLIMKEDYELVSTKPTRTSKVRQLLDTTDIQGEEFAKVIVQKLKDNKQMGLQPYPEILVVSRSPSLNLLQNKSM

Turning to `CC(C)(C)n1cc(NC(=O)Cc2ccc(Oc3ccnc4ccc(S(C)(=O)=O)cc34)cc2F)cn1` [Compound 38, N-(1-(tert-butyl)-1H-pyrazol-4-yl)-2-(2-fluoro-4-((6-(methylsulfonyl)quinolin-4-yl)oxy)phenyl)acetamide], the IC50 at RIPK2 enzyme is below 2.5 nM; in test [1], 5 nM; in test [2], 54 nM.
Take `Cc1cc(CC(=O)Nc2cnn(C(C)(C)C)c2)ccc1Oc1ccnc2ccc(OC3CCNCC3)cc12` [Compound 83, N-(1-(tert-butyl)-1H-pyrazol-4-yl)-2-(3-methyl-4-((6-(piperidin-4-yloxy)quinolin-4-yl)oxy)phenyl) acetamide]: the figures for the IC50 (on RIPK2 enzyme; in test [1]; in test [2]) were below 2.5 nM, 3 nM and 29 nM, respectively.
The corresponding values for `Cc1cc(CC(=O)Nc2cnn(C(C)(C)C)c2)ccc1Oc1ccnc2ccc(S(C)(=O)=O)cc12` [Compound 86, N-(1-(tert-butyl)-1H-pyrazol-4-yl)-2-(3-methyl-4-((6-(methylsulfonyl)quinolin-4-yl)oxy)phenyl)acetamide] are below 2.5 nM, 9 nM and 12 nM.
Regarding `Cc1c(Oc2ccnc3ccc(S(C)(=O)=O)cc23)ccc(CC(=O)Nc2cnn(C(C)(C)C)c2)c1F` [Compound 91, N-(1-(tert-butyl)-1H-pyrazol-4-yl)-2-(2-fluoro-3-methyl-4-((6-(methylsulfonyl)quinolin-4-yl)oxy)phenyl)acetamide], the IC50 is below 2.5 nM at RIPK2 enzyme, 6 nM in test [1] and 12 nM in test [2].
The corresponding values for `CCS(=O)(=O)c1ccc2nccc(Oc3ccc(CC(=O)Nc4cnn(C(C)(C)C)c4)cc3C)c2c1` [Compound 99, N-(1-(tert-butyl)-1H-pyrazol-4-yl)-2-(4-((6-(ethylsulfonyl)quinolin-4-yl)oxy)-3-methylphenyl)acetamide] are below 2.5 nM, 8 nM and 15 nM.
The corresponding values for `Cc1cc(CC(=O)Nc2cnn(C(C)(C)C)c2)c(F)cc1Oc1ccnc2ccc(S(C)(=O)=O)cc12` [Compound 113, N-(1-(tert-butyl)-1H-pyrazol-4-yl)-2-(2-fluoro-5-methyl-4-((6-(methylsulfonyl)quinolin-4-yl)oxy)phenyl)acetamide] are below 2.5 nM, 14 nM and 33 nM.
The corresponding values for `Cc1cc(CC(=O)Nc2cnn(C(C)(C)C)c2)c(F)cc1Oc1ccnc2ccc(C(N)=O)cc12` [Compound 359, 4-(4-(2-((1-(tert-butyl)-1H-pyrazol-4-yl)amino)-2-oxoethyl)-5-fluoro-2-methyl-phenoxy) quinoline-6-carboxamide] are below 2.5 nM, 4 nM and 14 nM.
As to `CNC(=O)c1ccc2nccc(Oc3cc(F)c(CC(=O)Nc4cnn(C(C)(C)C)c4)cc3C)c2c1` [Compound 360, 4-(4-(2-((1-(tert-butyl)-1H-pyrazol-4-yl)amino)-2-oxoethyl)-5-fluoro-2-methylphenoxy)-N-methylquinoline-6-carboxamide], the IC50 at RIPK2 enzyme was below 2.5 nM; in test [1] it was 7 nM; in test [2], 8 nM.
In the case of `Cc1cc(CC(=O)Nc2cnn(C(C)(C)C)c2)cc(C)c1Oc1ccnc2cc(F)c(C(N)=O)cc12` [Compound 581, 4-(4-(2-((1-(tert-butyl)-1H-pyrazol-4-yl)amino)-2-oxoethyl)-2,6-dimethylphenoxy)-7-fluoroquinoline-6-carboxamide], the IC50 at RIPK2 enzyme is below 2.5 nM; in test [2] it was 61.4 nM.
